Reference: PubChem BioAssay (NCI)
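Growth conditions: 96-well plates. Treatment: test compound, 48 hours, 5 concentrations. Analysis: linear interpolation between bracketing concentrations; unreached endpoints set to highest concentration. Here, GI50 denotes the concentration required for 50% inhibition of growth. The concentration for full growth arrest is given as TGI.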

Columns and labels:
Assay in all cases: NCI tumour cell line growth inhibition, 48 h
MCF7 breast = system: MCF7 breast
A549 NSCLC = system: A549 NSCLC
NCI-H460 lung = system: NCI-H460 lung
UACC-62 melanoma = system: UACC-62 melanoma
OVCAR-8 ovarian = system: OVCAR-8 ovarian
T-47D breast = system: T-47D breast
SK-MEL-2 melanoma = system: SK-MEL-2 melanoma
SNB-19 CNS = system: SNB-19 CNS
TK-10 renal = system: TK-10 renal
CCRF-CEM leukemia = system: CCRF-CEM leukemia
RPMI-8226 leukemia = system: RPMI-8226 leukemia

SMILES	TGI (MCF7 breast) [µM]	TGI (A549 NSCLC) [µM]	TGI (NCI-H460 lung) [µM]	TGI (UACC-62 melanoma) [µM]	TGI (OVCAR-8 ovarian) [µM]	TGI (T-47D breast) [µM]	TGI (SK-MEL-2 melanoma) [µM]	TGI (SNB-19 CNS) [µM]	TGI (TK-10 renal) [µM]	TGI (CCRF-CEM leukemia) [µM]	TGI (RPMI-8226 leukemia) [µM]	GI50 (MCF7 breast) [µM]	GI50 (NCI-H460 lung) [µM]	GI50 (UACC-62 melanoma) [µM]	GI50 (T-47D breast) [µM]	GI50 (SK-MEL-2 melanoma) [µM]	GI50 (TK-10 renal) [µM]	GI50 (CCRF-CEM leukemia) [µM]	GI50 (OVCAR-8 ovarian) [µM]	GI50 (SNB-19 CNS) [µM]
CCOC(=O)CCC(NC(=O)c1ccc(CNc2nc3cc(N)cc(N)c3nc2-c2ccccc2)cc1)C(=O)OCC (stereo not given)	> 100	> 100	> 100	> 100	> 100	49.1	> 87.9	> 100	> 100	–	–	–	–	–	–	–	–	–	–	–
C#CC(O)/C=C/CCCCCCC#CC/C=C\CC#CCCCCCC/C=C/C(O)C#C (stereo not given)	25.9	10.2	16.3	7.38	13.1	5.85	6.8	24.8	11	0.722	–	–	–	–	–	–	–	–	–	–
Cn1c(C(C#N)c2cc(Cl)ncn2)nc2ccccc21 (stereo not given)	–	> 100	> 100	–	> 100	> 100	–	> 100	> 100	–	> 100	–	–	–	–	–	–	–	–	–
N[C@@H]1c2c(Br)sc(Br)c2[C@H](O)[C@@H]1O	> 100	> 100	> 100	> 100	> 100	> 100	> 100	> 100	> 100	> 100	–	–	–	–	–	–	–	–	–	–
CCOC(OCC)C(CC)[Se]c1ccccc1[N+](=O)[O-] (stereo not given)	–	> 63.3	18.6	> 56.2	49.9	> 100	> 90.4	> 94.5	> 100	> 62.5	23	–	–	–	–	–	–	–	–	–
CC12O[C@H](c3ccccc3)[C@H](c3ccccc3)N1C(=O)C1(C(=O)OCc3ccccc3)CC12 (stereo not given in full)	–	> 100	> 100	> 100	> 100	–	> 100	> 100	–	> 100	–	–	–	–	–	–	–	–	–	–
NC(=O)N/N=C(\Cc1nc2ccc(C(=O)c3ccccc3)cc2[nH]c1=O)C(=O)Nc1ccc(Br)cc1	–	> 100	> 100	> 100	> 100	–	> 100	> 100	> 100	> 100	> 100	–	–	–	–	–	–	–	–	–
COC(=O)C(NC(=O)CNC(=O)CSc1nnc(COc2ccc(Cl)cc2)n1-c1ccccc1)C(C)C (stereo not given)	30.4	> 100	36.2	31.8	40.8	–	40.5	50.1	34.3	> 100	46.7	–	–	–	–	–	–	–	–	–
C[n+]1c2ccccc2c(CNC(CCC(N)=O)C(=O)O)c2ccccc21 (stereo not given)	7.73	11.8	11.8	6.19	7.55	–	12	16.3	5.68	3.29	2.54	–	–	–	–	–	–	–	–	–
OCCSCCCSCCO	> 100	> 100	> 100	> 100	> 100	> 100	–	> 100	> 100	> 100	–	–	–	–	–	–	–	–	–	–
CC(=O)NNc1nc(C)c(C(/C=C/c2ccc(Cl)cc2)=N\NS(=O)(=O)c2ccc(C)cc2)s1	–	> 100	> 100	> 100	> 100	–	> 100	> 100	> 100	> 100	> 100	–	–	–	–	–	–	–	–	–
CN1N=C2c3ccccc3CC[C@H]2C1c1ccccc1 (stereo not given in full)	–	> 100	> 100	> 100	> 100	–	> 100	> 100	> 100	> 100	> 100	–	–	–	–	–	–	–	–	–
O=C(O)c1c(CC(Cc2ccc3c(c2)CCCC3)C(=O)O)ccc2c1CCCC2 (stereo not given)	–	> 100	> 100	> 100	> 100	> 100	> 100	> 100	> 100	> 100	> 100	–	–	–	–	–	–	–	–	–
CN(C)CCNCc1c2ccccc2c(CNCCN(C)C)c2ccccc12	79.8	> 59.9	> 100	> 61.6	> 100	–	57.5	–	–	88.8	> 100	–	–	–	–	–	–	–	–	–
O=c1ccc2ccccc2o1	–	> 100	> 100	> 100	> 100	–	> 100	> 100	> 100	> 100	> 100	–	–	–	–	–	–	–	–	–
CN1CCN(CC(=O)Nc2ccc3ncnc(Nc4ccc(Oc5cccc(C(F)(F)F)c5)c(Cl)c4)c3c2)CC1	3	–	3.29	3.4	–	4.1	4.04	–	2.83	–	–	1.48	1.74	1.83	1.66	2.02	1.25	–	–	–
Cc1ccc(NC(=O)CC(=O)n2nc(-c3ccccc3)c(N=Nc3ccc(Cl)cc3)c2-c2ccccc2)cc1	–	64.4	> 100	> 100	60.6	–	> 100	> 100	72	54.3	47.8	–	–	–	–	–	–	–	–	–

SMILES	TGI (MCF7 breast) [µM]	TGI (A549 NSCLC) [µM]	TGI (NCI-H460 lung) [µM]	TGI (UACC-62 melanoma) [µM]	TGI (OVCAR-8 ovarian) [µM]	TGI (T-47D breast) [µM]	TGI (SK-MEL-2 melanoma) [µM]	TGI (SNB-19 CNS) [µM]	TGI (TK-10 renal) [µM]	TGI (CCRF-CEM leukemia) [µM]	TGI (RPMI-8226 leukemia) [µM]	GI50 (MCF7 breast) [µM]	GI50 (NCI-H460 lung) [µM]	GI50 (UACC-62 melanoma) [µM]	GI50 (T-47D breast) [µM]	GI50 (SK-MEL-2 melanoma) [µM]	GI50 (TK-10 renal) [µM]	GI50 (CCRF-CEM leukemia) [µM]	GI50 (OVCAR-8 ovarian) [µM]	GI50 (SNB-19 CNS) [µM]
CN(C)c1ccc(/C=C/c2sc3ccc4ccccc4c3[n+]2C)cc1	–	–	–	–	1.67	–	–	> 100	1.92	> 100	–	–	–	–	0.367	–	0.41	0.33	0.285	0.521
Cc1cc(Cc2cc(C)c(NC(=O)C(=O)C3C(=O)NC(=S)NC3=O)c(C(C)C)c2)cc(C(C)C)c1NC(=O)C(=O)C1C(=O)NC(=S)NC1=O	–	> 100	> 100	> 100	> 100	–	–	> 100	> 100	> 100	> 100	–	–	–	–	–	–	–	–	–
COc1ccc(NC(=O)C(=O)NNC(=O)c2sc(NNC(C)=O)nc2C)c([N+](=O)[O-])c1	–	> 100	> 100	> 100	> 100	–	> 100	> 100	> 100	61.7	> 100	–	–	–	–	–	–	–	–	–
COc1nn(Cc2ccccc2F)c2ccc([N+](=O)[O-])cc12	> 100	> 100	> 100	–	> 100	> 100	> 100	> 100	> 100	> 100	–	–	–	–	–	–	–	–	–	–
CCc1cccc(C(C)C)c1NC(=O)C(=O)C(C(=O)C(=O)OC)c1nc2ccccc2[nH]c1=O (stereo not given)	–	> 100	> 100	> 100	> 100	–	> 100	> 100	> 100	> 100	> 100	–	–	–	–	–	–	–	–	–
Cc1cc(N(CCC#N)CCC#N)ccc1/C=C(\NC(=O)/C=C/c1ccccc1)NC(=O)Nc1ccc(Cl)cc1	–	> 100	> 100	> 100	> 100	–	> 100	> 100	–	> 100	> 100	–	–	–	–	–	–	–	–	–
CCSc1nc2sc(C)c(C)c2c(=O)n1-c1ccc(C(=O)O)cc1	–	> 100	> 100	> 100	> 100	–	> 100	> 100	> 100	> 100	> 100	–	–	–	–	–	–	–	–	–
O=C1CN(c2ccc(Cl)cc2)C(=O)CN1CCN1CC(=O)N(c2ccc(Cl)cc2)CC1=O	> 100	> 100	> 100	> 100	> 100	–	–	> 100	> 100	> 100	> 100	–	–	–	–	–	–	–	–	–
C[C@@]12CC[C@H]3[C@@H]4CCC(=O)N[C@@]4(C)CC[C@@H]3[C@@]1(C)CC[C@H](OC(=O)Cc1ccc(N(CCCl)CCCl)cc1)C2	24.7	30.4	28.2	30.5	33.1	–	> 100	–	–	35.1	56	–	–	–	–	–	–	–	–	–
COC(=O)NCCc1[nH]nc2c1C(=O)C=C(OC)C2=O	48.1	> 100	> 100	48.7	42.8	–	> 100	45.6	> 100	45.8	53.9	–	–	–	–	–	–	–	–	–
O=C(CSc1nnc(Cc2ccccc2)o1)Nc1ccc(Cl)cc1	–	> 100	> 100	> 100	> 100	–	> 100	> 100	> 100	> 100	> 100	–	–	–	–	–	–	–	–	–
N#C/C(=C/c1cccnc1)C(=O)c1ccccc1	–	> 100	> 100	> 100	> 100	–	> 100	> 100	> 100	> 100	> 100	–	–	–	–	–	–	–	–	–
OCCCSc1ccccc1SCCCO	> 100	> 100	> 100	> 100	> 100	> 100	–	> 100	> 100	> 100	–	–	–	–	–	–	–	–	–	–
CC1=C(C2=C(C)C(=O)C(=O)c3cc(C)ccc32)c2ccc(C)cc2C(=O)C1=O	–	2.73	0.531	0.381	0.54	–	0.877	0.31	1.2	> 100	0.705	–	–	–	–	–	–	–	–	–
O=[N+]([O-])c1ccc(NC2OCC(O)C(O)C2O)cc1 (stereo not given)	–	> 100	> 100	> 100	> 100	–	> 100	> 100	> 100	> 100	> 100	–	–	–	–	–	–	–	–	–
NC1CC2C3CCC2C1C3=O (stereo not given)	> 100	> 100	> 100	> 100	> 100	> 100	> 100	> 100	> 100	> 100	–	–	–	–	–	–	–	–	–	–
